Test results as given in patent US20260216189A1, “TOPICAL COMPOSITIONS CONTAINING A JANUS KINASE INHIBITOR” (Zoetis Services LLC, priority 2023, published 2026).

How the values were obtained:
[1] = tested on: HDM challenge site (excoriation lesions and erythema); experiment: house dust model (HDM) challenge, topical treatment of beagle dogs; colorimeter erythema and lesion scores; assay type: in vivo; conditions: for Post challenge total lesion scores compared to the saline group: treatment groups vs saline group
Protocol: (§1) The pharmacokinetics and pharmacodynamics (PK/PD) of orally dosed oclacitinib (0.4-0.6 mg/kg) is well understood. […] An oral 14C-oclacitinib study determined that a single 0.4 mg/kg dose achieved a mean skin concentration of 212 ng equivalents/gram of tissue. A house dust model (HDM) was used to assess the efficacy of the compositions described herein. The topical HDM challenge results in excoriation lesions and erythema at the challenge site. In one study, placebo (saline, TO1), triamcinolone acetonide 0.15 mg/mL (T02), oclacitinib maleate 7.5 mg/mL (T03) and oclacitinib maleate 10 mg/mL (T04) were topically administered to beagle dogs (8/group). The weights of drug in T02-T04 were freebase amounts.
Daily assessments were observed through Day 41. Colorimeter measurements provided quantified erythema scores. […] Lesions were observed and scored based on severity of erythema, papules and excoriations at the challenge site.

[2] = in vivo, po, 0.4 mg/kg
Protocol: as §1
Systemic plasma concentrations and skin concentrations 24 hours post dose were assessed for multiple compositions of the invention in a number of PK studies; including compositions with oclacitinib or oclacitinib maleate with API concentrations ranging from 1-10 mg/mL oclacitinib. […] The oral 14C-oclacitinib study determined that a 0.4 mg/kg oral dose of oclacitinib achieved a mean skin concentration of 212 ng equivalents/gram. […]

[3] = PK studies of topical compositions: systemic plasma and skin concentrations, single and repeat dose; assay type: in vivo
Protocol: Systemic plasma concentrations and skin concentrations 24 hours post dose were assessed for multiple compositions of the invention in a number of PK studies; including compositions with oclacitinib or oclacitinib maleate with API concentrations ranging from 1-10 mg/mL oclacitinib. The compositions tested to date have shown prolonged absorption that lasts at least 72 hours following a single dose and low topical bioavailability of less than 10% with single dose skin concentrations at least 20-80 times that observed in the oral single dose ^14C study. The oral 14C-oclacitinib study determined that a 0.4 mg/kg oral dose of oclacitinib achieved a mean skin concentration of 212 ng equivalents/gram. Permeation and penetration studies with compositions comprising a glycol, glycol ether and DMSO achieved single dose skin concentrations greater (28.4-54.5 μg/g) than that concentration achieved following oral administration, as mentioned above, and well above the reported oclacitinib IC50's for pro-inflammatory and pruritogenic cytokines.
The rate and amount of topical absorption can be a non-linear function of the API concentration of the composition. The topical compositions of the invention minimized systemic plasma oclacitinib concentrations while maintaining high skin concentrations. […] The studies to date and formulations described herein have shown that the compositions deliver skin concentrations greater than those observed with oral dosing. […] The topical single dose bioavailability is low, less than 5% when administered to an area that limits oral exposure from licking. […] Formulations with a lower oclacitinib concentration had lower systemic exposures.

[4] = subsequent study, 2-3 sprays of topical solution, skin concentrations; assay type: in vivo; conditions: 2.5-10 mg/mL, about 0.25 to 0.5 mL topical
Protocol: In a subsequent study, animals received 2.5-10 mg/mL oclacitinib by applying 2-3 sprays for a total of about 0.25 to 0.5 mL of the topical solution to an area of skin.

[5] = tested on: IL-31 induced itch; conditions: orally dosed oclacitinib (0.4-0.6 mg/kg); cited from earlier work

Compound	erythema reduction compared to saline (colorimeter) ([1]; 7.5 mg/mL topical, Day 36 (P=0.0993))	area under the curve (AUC) of total lesion scores compared to saline ([1]; 10 mg/mL (p<0.08))	erythema reduction compared to saline (colorimeter) ([1]; 10 mg/mL topical, Days 27, 28, and 36 (p≤0.0948))	lesion score reduction after the dosing period ended, versus other treatment groups ([1]; after the 28 day dosing period, observation through Day 41)	erythema reduction compared to saline (colorimeter) ([1]; both concentrations (7.5 and 10 mg/mL), topical once daily, after approximately 1 month of dosing)	Post challenge total lesion scores compared to the saline group [1]	lesion score reduction compared to saline ([1]; spray 7.5 mg/mL, Days 4, 7, 11, 26, 27, 30, and 39)	lesion score reduction compared to saline ([1]; spray 10 mg/mL, Days 7-11, 26, 30, and 32-34)	mean skin concentration [2]	24-hour post dose skin concentrations following repeat dosing, fold higher ([3]; across study comparisons, repeat vs single dosing)	accumulation in skin and plasma ([3]; following multiple daily administrations)	systemic levels ([3]; following multiple daily doses)	bioavailability ([3]; plasma, topical, administered to an area that limits oral exposure from licking)	systemic plasma concentrations: absorption and terminal phase ([3]; single and repeat dose studies)	PK following topical administration, maleate vs freebase formulations ([3]; topical)	skin concentrations of oclacitinib [4]	Plasma concentrations effective in reducing IL-31 induced itch [5]	lesion score reduction compared to saline ([1]; triamcinolone 0.15 mg/mL, Day 35)	lesion score reduction compared to saline ([1]; triamcinolone 0.15 mg/mL, Days 4, 8, 10, 11)	erythema reduction compared to saline (colorimeter) ([1]; triamcinolone spray 0.15 mg/mL, Days 12, 14, 19, 24-26, 28-33, and 35-41 (P≤0.0912))
CNS(=O)(=O)C[C@H]1CC[C@H](N(C)c2ncnc3[nH]ccc23)CC1 [oclacitinib, N-methyl-1-{trans-4-[methyl (7H-pyrrolo[2,3-d]pyrimidin-4-yl)amino]cyclohexyl}-methanesulfonamide]	significantly greater reduction in erythema	significantly lower	significantly greater reduction	continued to demonstrate significant reduction in lesion scores	significant erythema reductions	significantly higher	significantly greater lesion score reductions	significantly greater lesion score reductions	212 ng equivalents/gram	at least 5 times	Accumulation in skin and plasma was observed	at a concentration that has shown efficacy in reducing IL-31 induced itch	< 5%	prolonged absorption with the terminal phase not evident 10 days post dose	comparable	acceptable skin concentrations	greater than 12 ng/ml			
CC1(C)O[C@@H]2C[C@H]3[C@@H]4CCC5=CC(=O)C=C[C@]5(C)[C@@]4(F)[C@@H](O)C[C@]3(C)[C@]2(C(=O)CO)O1 [triamcinolone, triamcinolone acetonide]						significantly higher												significantly lesser reduction	significantly greater reductions in lesion scores	significantly less reduction in erythema
oclacitinib maleate															comparable					
